The text below walks through data of US12156862B2, “Medicaments for the treatment of vasoconstriction related diseases or disorders” (Sulfateq B.V., priority 2017, dated 2024).

Marks after values point to notes of the source that are not given here.

In experiment [1] the target is T1, human α1 adrenoceptor subtype A (Homo sapiens, UniProt P35348).
T1 construct: expressed in transfected cells; host or cells: CHO-K1
T1 sequence (P35348 1-466): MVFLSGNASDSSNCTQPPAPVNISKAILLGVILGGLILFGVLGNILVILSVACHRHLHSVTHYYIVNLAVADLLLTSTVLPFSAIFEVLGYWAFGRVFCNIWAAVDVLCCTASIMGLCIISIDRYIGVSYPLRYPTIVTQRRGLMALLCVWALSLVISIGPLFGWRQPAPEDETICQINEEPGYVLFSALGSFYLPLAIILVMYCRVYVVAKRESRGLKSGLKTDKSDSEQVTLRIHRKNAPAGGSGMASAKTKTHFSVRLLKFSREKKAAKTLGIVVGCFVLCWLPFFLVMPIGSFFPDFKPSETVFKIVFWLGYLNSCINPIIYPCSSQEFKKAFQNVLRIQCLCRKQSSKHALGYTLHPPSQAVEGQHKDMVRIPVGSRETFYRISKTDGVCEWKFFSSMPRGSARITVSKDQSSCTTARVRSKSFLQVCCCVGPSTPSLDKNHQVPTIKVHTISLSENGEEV
Briefly: Phenylephrine-induced intracellular calcium (FLIPR Calcium 6) in CHO cells, α1A. Format: cell-based. The procedure:
CHO-K1 cells were stably transfected with a plasmid containing human al-AR subtypes A, B and D in separate cell lines in DMEM-F12 medium with 10% FBS, 1% penicillin-streptomycin and 200 μg/mL Geneticin (G418, Invitrogen, Carlsbad, CA).
On the next day, CHO cells were treated with either vehicle (0.1% DMSO) or SUL-121 enantiomers for 30 min at 37° C. and stimulated with a 3-fold dilution series of PE (20 μM-100 pM). [Ca^2], was measured using the fluorescent FLIPR Calcium 6 assay kit (Molecular Devices) in immortalized CHO cells stably expressing the α1 adrenoceptor.
Initially, calcium responses induced by non-cumulative concentration series of phenylephrine were investigated using fluorescent measurements in α1A adrenoceptor-overexpressing CHO cells treated with SUL-150 and SUL-151 (FIG. 4). Fluorescent measurement data was processed and analyzed in SoftMax Pro 7 and expressed as % of baseline AUC with a 3-fold multiplier using an average of first 10 measurement points as baseline.

A further experiment deals with T2, α1A adrenoceptor (Homo sapiens, UniProt P35348).
T2 construct: expressed in transfected cells; host or cells: CHO-K1
T2 sequence (P35348 1-466): T1 sequence (P35348 1-466)
The experiment can be described thus: Radiolabeled prazosin displacement binding assay in α1A adrenoceptor transgenic CHO cells. To be noted: [7-Methoxy-3H]-prazosin. The text has this: We therefore explored whether SUL-150 could directly interact with the α1 adrenoceptor as a receptor antagonist.

Experiment [2] has as its system porcine intrarenal arteries (histamine induced constrictions). Briefly: Histamine-induced constriction of isolated porcine intrarenal arteries. The conditions noted are these: for logEC50 of histamine-induced constriction responses: Porcine renalis. How it is done:
(§1) Porcine kidneys were obtained from a local slaughterhouse (Kroon Vlees, Gotenburgweg 30, 9723 TM Groningen. The Netherlands) and transported on ice in normal physiological Krebs buffer containing 120 mM NaCl, 6 mM KCl, 2.5 mM CaCl2×2H2O, 1.2 mM MgCl2×6H2O, 1.2 mM NaH2PO4×H2O, 25 mM NaHCO3 and 11.4 mM D-(+)-Glucose monohydrate (all ingredients were purchased from Merck) in ultrapure water.
(§2) The renal artery tree was dissected from the kidney, cleaned of surrounding connective tissue and cut into equally-sized ring segments (2 mm in length). In some rings, endothelium denudation was performed by gentle rubbing of the intimal surface with a paper clip. Rings were mounted in organ baths as described previously (Buikema et al., 2000). Arterial rings were washed thoroughly by replacing Krebs buffer and allowed to equilibrate for a period of 60 min under 1.4 g of resting tension before they were assessed for viability by inducing 2 subsequent constrictions with KCl (60 mM). […] After washout and stabilization, rings were treated for 30 minutes by incubation with vehicle (0.1% DMSO), SUL-121, SUL-150 or SUL-151, followed by subsequent incubation with cumulative doses of phenylephrine.
To gain insight into receptor specificity of SUL-150, the effects of SUL-150 on histamine and U46619 (a synthetic thromboxane agonist) induced constrictions were investigated (FIG. 2).

The subject of another experiment is α1 adrenoceptor. Briefly: Phenylephrine-induced constriction of isolated porcine intrarenal arteries (myography). How it is done:
as §1, §2
Dose-dependent constriction responses to phenylephrine (10^−8M-10^−4M) were recorded in said isolated porcine intrarenal arteries. Buffer was warmed to 37° C. and aerated with 95% O2 and 5% CO2 before use.
Vascular constriction responses are expressed as percentage of final response to KCl. Data are expressed as mean±SEM. *p<0.05.
To explore the effects of the enantiomers of (6-hydroxy-2,5,7,8-tetramethylchroman-2-yl)(piperazin-1-yl)methanone (SUL-150 and SUL-151) on constriction of isolated porcine intrarenal arteries, cumulative dose response curves to the α1 adrenoceptor agonist phenylephrine (PE) were constructed in the presence and absence of SUL-150 and SUL-151.

The next experiment relates to EGFR transactivation. Briefly: Phenylephrine-induced constriction of porcine intrarenal arteries pre-treated with EGFR blocker AG1478. The conditions noted are these: AG1478 20 μM and SUL-150 50 μM. The procedure: Inhibition of EGF receptor (EGFR) transactivation is known to inhibit α1 adrenoceptor mediated constrictions (REF). Therefore, we investigated the role of EGFR transactivation in SUL-150 mediated inhibition of vasoconstriction. For this, porcine intrarenal arteries were pre-treated with the EGFR blocker AG1478 (FIG. 3). First, an initial measurement was performed to determine the dose of AG1478 which would cause maximal inhibition of vascular constriction induced by PE (FIG. 3A). Subsequently, isolated arteries were treated with AG1478 (20 μM) and SUL-150 (50 μM) and studied for PE-induced vasoconstriction.

As to `Cc1c(C)c2c(c(C)c1O)CC[C@](C)(C(=O)N1CCNCC1)O2` [SUL-150, (R)(6-hydroxy-2,5,7,8-tetramethylchroman-2-yl)(piperazin-1-yl)methanone], the “logEC50 of phenylephrine-induced calcium influx, α1A” value was −7.62 ± 0.03 in experiment [1] (10 μM test compound), −7.28 ± 0.03 in experiment [1] (30 μM test compound) and −6.88 ± 0.03 in experiment [1] (100 μM test compound). The “effect on PE-induced calcium transients, α1 adrenoceptor subtype A” value in experiment [1] (in words) is given as “shifted dose response curves rightwards”. Besides, the “potency in displacing the radioligand compared to SUL-151” value at α1A adrenoceptor is given as “more potent”. For the same compound, the “logEC50 of histamine-induced constriction responses” value in experiment [2] (30 μM SUL-150) is −4.86 ± 0.08; in experiment [2] (100 μM SUL-150), −4.85 ± 0.10. Besides, the “effect on constriction responses to histamine” value in experiment [2] (30 μM and 100 μM, in words) is listed as “did not affect”. The “logEC50 of phenylephrine-induced constriction responses” value with α1 adrenoceptor (10 μM test compound) is −5.11 ± 0.09*; with α1 adrenoceptor (30 μM test compound), −5.06 ± 0.06*; with α1 adrenoceptor (100 μM test compound) it was −4.44 ± 0.09*. Besides, in the experiment with EGFR transactivation, the “effect on PE-mediated constriction on top of AG1478” value is “additional inhibitory effect”.
